According to the OligoGym collection:
These antisense oligonucleotides have a phosphorothioate backbone; sugars and methylation of C are not fully specified.

How the values were obtained:
PDPK1 = settings: ASO
GNA12 = settings: ASO
Further: test concentration or dose not given here.

Sequence | remaining target (mRNA or protein) (fraction of control) (PDPK1) | remaining target (mRNA or protein) (fraction of control) (GNA12)
AAAAGAGCCTTCCCCAAG | 0.88 | –
AAACTGGCTCAGGAGATT | 0.26 | –
AAAGGTCTGAACTCTTAC | 0.59 | –
AAATAAACCCTTCCGCTT | 0.74 | –
AACAACAACCTCTTCTCA | 0.7 | –
AACTGGTGCCAAGGGTTT | 0.54 | –
AAGGCCGAAATACAGCTT | 0.29 | –
AAGGTCCCTGTGAATGAT | 0.39 | –
ACTGGATGGGCACGGCGT | 0.63 | –
AGACTTTTGCTGTTCCAA | 0.28 | –
AGCGTCCTCCTCCCCGAA | 0.87 | –
AGCTGGCTGGTGGTCCTG | 0.36 | –
AGGCGCGACATGACATCC | 0.25 | –
ATAGCAGTCCTCGTCGTC | 0.57 | –
ATATTCTCTGGAGGTTGC | 0.78 | –
ATCGGGTACAGGTCTCAT | 0.68 | –
ATGTGGTCCTTCTGTGAG | ≥ 1 | –
ATGTTTTCCGGTTTAAGG | 0.66 | –
ATTGTCATAATTGCCATA | 0.78 | –
ATTTTCTACAAACTGGTG | 0.83 | –
CAAGAGCCCAAAGGTCTG | ≥ 1 | –
CAAGGTTTCCGCCTCTGC | 0.26 | –
CAAGTACTCTAAAGCAGA | 0.65 | –
CACTGCACAGCGGCGTCC | ≥ 1 | –
CAGCTTCTCGTCGTCCTG | 0.26 | –
CAGGACAACCGTGGAAAA | ≥ 1 | –

Sequence | remaining target (mRNA or protein) (fraction of control) (PDPK1) | remaining target (mRNA or protein) (fraction of control) (GNA12)
CAGTCTGGGTCCTCACCA | 0.54 | –
CATCCCGCTCTCTGGTTA | 0.41 | –
CCAGCTCGGAATGGTGGG | 0.82 | –
CCGTCGAAGCACTGGAAC | – | 0.8
CCTGAAATGTGAAGTAAA | ≥ 1 | –
CCTGAAGTCCGGGAAGTG | – | 0.85
CCTGTCGAAGCACTGGAC | – | 0.34
CGAAGGCCATCAGGAACA | – | ≥ 1
CGAAGTTCTTGTGACCAA | ≥ 1 | –
CGATCTCAGCCGTGTAAA | 0.13 | –
CTCAGGCCGCTTCTTCCG | 0.53 | –
CTCAGGGCCGGGACGTAC | – | 0.77
CTCCAGCAGCGCCTTCTG | – | ≥ 1
CTCGCGGCCGTGGATGAT | – | 0.99
CTCTAAAGCAGACACAAT | 0.71 | –
CTGAAATGTGAAGTAAAG | 0.45 | –
CTGACAGGGAGTGTGAGG | ≥ 1 | –
CTGAGGGTCCGCACCACC | – | ≥ 1
CTGCTCTATGTTGCTGCC | 0.55 | –
CTGGAACCACTTCTGGCG | – | 0.89
CTGGAGGAGACCATGAAC | – | ≥ 1
CTGGTATCGCTGCCTCCA | 0.22 | –
CTTATCTCGTGCATCAAC | – | 0.51
CTTCCATTTCCTCACAGC | 0.33 | –
CTTGGTGGCTTTCCTAGC | – | ≥ 1
GAAAGCCTCCCTGATGCC | – | 0.38

Sequence | remaining target (mRNA or protein) (fraction of control) (PDPK1) | remaining target (mRNA or protein) (fraction of control) (GNA12)
GAAGCGGACGTTCTCGGT | – | ≥ 1
GAAGTCCTCAGGCCGCTT | 0.28 | –
GACATCCCGCTCTCTGGT | 0.68 | –
GAGTTGGCCCTGGCTTGT | 0.5 | –
GATATCTTGCTTACTAGG | – | 0.37
GATTTTGCGAATATATTT | ≥ 1 | –
GCAGGAACATAACACCAC | 0.54 | –
GCAGGATCTTCACCAGGC | – | 0.93
GCAGGTGTCCTGGCAGCG | 0.49 | –
GCATATTCTCTGGAGGTT | ≥ 1 | –
GCATGCTGCAGGGAGCCG | ≥ 1 | –
GCGCATCTGCTTGAGGAA | – | 0.82
GCGCCTTCTGGTCGAACT | – | 0.72
GCGTCCTCCTCCCCGAAG | ≥ 1 | –
GCTCACGGTCTTCACCTT | – | ≥ 1
GCTGCAAGGTTTCCGCCT | ≥ 1 | –
GCTGCCTCCAAACCTCCT | ≥ 1 | –
GCTGTTCCCACGAATGAG | 0.39 | –
GCTTGAGGAACGTGGACT | – | 0.31
GGAAGAGAATGATGGAGA | – | ≥ 1
GGAAGTACTTCACCGACT | – | ≥ 1
GGACCTGGTCGTACTCGC | – | 0.42
GGATGATGCGCATCTGCT | – | ≥ 1
GGCAGCGGCTGAGGGTCC | – | 0.68
GGGACGTACAGCTGGAAG | – | 0.53
GGTGCGCCTGTCCTCCAT | – | 0.33

Sequence | remaining target (mRNA or protein) (fraction of control) (PDPK1) | remaining target (mRNA or protein) (fraction of control) (GNA12)
GGTGGAAGAGTGGCTTGC | – | 0.65
GGTTCTCCTGCAGGATGG | – | 0.93
GTCCATCTTGTTGAGGAA | – | 0.68
GTCGATGTCGCGGCTACG | – | ≥ 1
GTCGTACTCGCTGGAGGA | – | 0.39
GTGCATCAACAAGAACCC | – | 0.89
GTGCGCTCAGGGCCGGGA | – | 0.72
GTGGACTTGCCGCTCTCG | – | ≥ 1
GTGGTGAAGTGGTGGAAG | – | 0.87
GTTCCGTCTCTTCCTGTC | – | 0.36
GTTGAAGAAGAGCTTGTT | – | 0.33
TCAGGAACATCCCATGCT | – | 0.79
TCCATGAGGACCTGGTCG | – | 0.79
TCCGGTCCAAGTTGTCCA | – | 0.88
TCGAAGATGGTGTCGCGG | – | 0.98
TCTGGTCGAACTCGCGGC | – | 0.7
TCTTCTTAATAACGAAGT | – | 0.48
TGGTCTCGAAGATGTTCA | – | 0.53
TGTCGCGGAACTCCAGCA | – | 0.79
TTAATAACGAAGTCATGC | – | 0.73
TTCATGGACTCCACCAGC | – | 0.57
TTGTTGACGATGGTCTCG | – | 0.73
TTTTCAGAATACTGCCAA | – | 0.63
